# “Also recorded” adds a separate entry of the source. Active and inactive are the calls of the source. The rule behind the calls is not given here.
# System: CCRIS mutagenicity, Ames/micronucleus/aberration tests
# Experiment: CCRIS mutagenicity studies
smiles,measurement,setting,value
COc1cc2c(c3oc(=O)c4c(c13)CCC4=O)[C@@H]1C=CO[C@@H]1O2,mutagenic call,"Test System: AMES SALMONELLA TYPHIMURIUM, Strain/Indicator: TA100, Metabolic Activation: MOUSE, LIVER, MICROSOMES, BENZO[E]PYRENE AND TCDD, Method: STANDARD PLATE",active; positive
same,mutagenic call,"Test System: AMES SALMONELLA TYPHIMURIUM, Strain/Indicator: TA100, Metabolic Activation: RABBIT, LUNG, CLARA CELL-RICH FRACTION, Method: PREINCUBATION",active; positive
same,mutagenic call,"Test System: AMES SALMONELLA TYPHIMURIUM, Strain/Indicator: TA100, Metabolic Activation: RAT LIVER S-9, DELOR 103, Method: STANDARD PLATE",active; positive
same,mutagenic call,"Test System: AMES SALMONELLA TYPHIMURIUM, Strain/Indicator: TA100, Metabolic Activation: RAT LIVER S-9, DELOREM 103, Method: STANDARD PLATE",active; positive
same,mutagenic call,"Test System: AMES SALMONELLA TYPHIMURIUM, Strain/Indicator: TA100, Metabolic Activation: RAT, LIVER, MICROSOMES, PHENOBARBITAL, Method: STANDARD PLATE",active; positive
same,mutagenic call,"Test System: AMES SALMONELLA TYPHIMURIUM, Strain/Indicator: TA100, Metabolic Activation: RAT, LIVER, S-9, ACRYLAMIDE, Method: STANDARD PLATE",active; positive
same,mutagenic call,"Test System: AMES SALMONELLA TYPHIMURIUM, Strain/Indicator: TA100, Metabolic Activation: RAT, LIVER, S-9, AROCLOR 1254, Method: MICROSUSPENSION",active; positive
same,mutagenic call,"Test System: AMES SALMONELLA TYPHIMURIUM, Strain/Indicator: TA100, Metabolic Activation: RAT, LIVER, S-9, AROCLOR 1254, Method: PREINCUBATION",active; positive
same,mutagenic call,"Test System: AMES SALMONELLA TYPHIMURIUM, Strain/Indicator: TA100, Metabolic Activation: RAT, LIVER, S-9, AROCLOR 1254, Method: STANDARD PLATE",active; positive
same,mutagenic call,"Test System: AMES SALMONELLA TYPHIMURIUM, Strain/Indicator: TA100, Metabolic Activation: RAT, LIVER, S-9, PHENOBARBITAL, Method: PREINCUBATION",active; positive
same,mutagenic call,"Test System: AMES SALMONELLA TYPHIMURIUM, Strain/Indicator: TA100, Metabolic Activation: RAT, LIVER, S-9, PHENOBARBITAL, Method: STANDARD PLATE",active; positive
same,mutagenic call,"Test System: AMES SALMONELLA TYPHIMURIUM, Strain/Indicator: TA1538, Metabolic Activation: RAT, LIVER, S-9, AROCLOR 1254, Method: STANDARD PLATE",active; positive
same,mutagenic call,"Test System: Ames Salmonella typhimurium, Strain/Indicator: TA98, Metabolic Activation: Rat, Liver, S-9, Aroclor 1254, Method: Preincubation",active; positive (decrease in mutagenicity when 0.99-15.90 mg/plate of chloroform extrac; also recorded: active; positive (decrease in mutagenicity when 0.46-7.30 mg/plate of methanol extract o
same,mutagenic call,"Test System: Ames Salmonella typhimurium, Strain/Indicator: TA100, Metabolic Activation: Rat, Liver, S-9, Aroclor 1254, Method: Preincubation",active; positive (decrease in mutagenicity when 0.46-7.30 mg/plate of methanol extract o
same,mutagenic call,"Test System: CHINESE HAMSTER V-79, Strain/Indicator: V-79/6-THIOGUANINE, Metabolic Activation: NONE, Method: STANDARD PLATE",inactive; negative
same,mutagenic call,"Test System: CHINESE HAMSTER V-79, Strain/Indicator: V-79/6-THIOGUANINE, Metabolic Activation: RAT, HEPATOCYTES, BUTYLATED HYDROXYANISOLE, Method: STANDARD PLATE",active; positive
same,mutagenic call,"Test System: CHINESE HAMSTER V-79, Strain/Indicator: V-79/6-THIOGUANINE, Metabolic Activation: RAT, HEPATOCYTES, Method: STANDARD PLATE",active; positive
same,mutagenic call,"Test System: CHINESE HAMSTER V-79, Strain/Indicator: V-79/6-THIOGUANINE, Metabolic Activation: RAT, LIVER, S-9, PHENOBARBITAL, Method: STANDARD PLATE",active; positive
same,mutagenic call,"Test System: CHINESE HAMSTER V-79, Strain/Indicator: V-79/OUABAIN, Metabolic Activation: CELL-MEDIATED, Method: STANDARD PLATE",active; positive
same,mutagenic call,"Test System: CHINESE HAMSTER V-79, Strain/Indicator: V-79/OUABAIN, Metabolic Activation: NONE, Method: STANDARD PLATE",inactive; negative
same,mutagenic call,"Test System: CHINESE HAMSTER V-79, Strain/Indicator: V-79/OUABAIN, Metabolic Activation: RAT, HEPATOCYTES, BUTYLATED HYDROXYANISOLE, Method: STANDARD PLATE",active; positive
same,mutagenic call,"Test System: CHINESE HAMSTER V-79, Strain/Indicator: V-79/OUABAIN, Metabolic Activation: RAT, HEPATOCYTES, Method: STANDARD PLATE",active; positive
same,mutagenic call,"Test System: UDS GUINEA PIG HEPATOCYTES, Strain/Indicator: THY INCORP, Metabolic Activation: NONE, Method: AUTORADIOGRAPHY",active; positive
same,mutagenic call,"Test System: UDS HUMAN CELLS, Strain/Indicator: THY INCORP (NON-S-PHASE), Metabolic Activation: RAT, LIVER, S-9, PHENOBARBITAL, Method: LIQUID SCINTILLATION COUNTING",active; positive
same,mutagenic call,"Test System: UDS HUMAN FIBROBLASTS, Strain/Indicator: THY INCORP (NON-S-PHASE), Metabolic Activation: MOUSE, LIVER, S-9, Method: AUTORADIOGRAPHY",active; positive
same,mutagenic call,"Test System: UDS HUMAN FIBROBLASTS, Strain/Indicator: THY INCORP (NON-S-PHASE), Metabolic Activation: NONE, Method: AUTORADIOGRAPHY",active; positive
same,mutagenic call,"Test System: UDS HUMAN FIBROBLASTS, Strain/Indicator: THY INCORP (NON-S-PHASE), Metabolic Activation: NONE, Method: LIQUID SCINTILLATION COUNTING",active; positive
same,mutagenic call,"Test System: UDS HUMAN HEPATOCYTES, Strain/Indicator: THY INCORP, Metabolic Activation: NONE, Method: AUTORADIOGRAPHY",active; positive
same,mutagenic call,"Test System: UDS MONKEY HEPATOCYTES, Strain/Indicator: THY INCORP, Metabolic Activation: NONE, Method: AUTORADIOGRAPHY",active; positive
same,mutagenic call,"Test System: UDS RAT HEPATOCYTES, Strain/Indicator: BROMODEOXYURIDINE INCORP, Metabolic Activation: NONE, Method: FLOW CYTOMETRIC ANALYSIS",active; positive
same,mutagenic call,"Test System: UDS RAT HEPATOCYTES, Strain/Indicator: THY INCORP, Metabolic Activation: AROCLOR 1254, Method: AUTORADIOGRAPHY",active; positive
same,mutagenic call,"Test System: UDS RAT HEPATOCYTES, Strain/Indicator: THY INCORP, Metabolic Activation: NONE, Method: AUTORADIOGRAPHY",active; positive
same,mutagenic call,"Test System: UDS RAT HEPATOCYTES, Strain/Indicator: THY INCORP, Metabolic Activation: NONE, Method: LIQUID SCINTILLATION COUNTING",active; positive
same,mutagenic call,"Test System: UDS RODENT HEPATOCYTES, Strain/Indicator: THY INCORP (NON-S-PHASE), Method: AUTORADIOGRAPHY",active; positive
same,mutagenic call,"Test System: UDS RODENT HEPATOCYTES, Strain/Indicator: THY INCORP (NON-S-PHASE), Method: LIQUID SCINTILLATION COUNTING",active; positive
same,mutagenic call,"Test System: UDS RODENT PRIMARY CELLS, Strain/Indicator: THY INCORP (NON-S-PHASE), Metabolic Activation: NONE, Method: AUTORADIOGRAPHY",active; positive

# Source: PubChem BioAssay AID1259407 (Chemical Carcinogenesis Research Information System (CCRIS), 2018)
